Measurements as given in ChEMBL document CHEMBL3991601, “The target landscape of clinical kinase drugs” (Science, 2017).
The source made the active and inactive calls. For most assays here, no stated cut-off is given here; in the data, actives have a measured Kd and inactives only a lower limit.

Columns and labels:
[1] = biological target: T1, MAP kinase-activated protein kinase 5 (Homo sapiens, UniProt Q8IW41)
T1 sequence (Q8IW41 whole entry): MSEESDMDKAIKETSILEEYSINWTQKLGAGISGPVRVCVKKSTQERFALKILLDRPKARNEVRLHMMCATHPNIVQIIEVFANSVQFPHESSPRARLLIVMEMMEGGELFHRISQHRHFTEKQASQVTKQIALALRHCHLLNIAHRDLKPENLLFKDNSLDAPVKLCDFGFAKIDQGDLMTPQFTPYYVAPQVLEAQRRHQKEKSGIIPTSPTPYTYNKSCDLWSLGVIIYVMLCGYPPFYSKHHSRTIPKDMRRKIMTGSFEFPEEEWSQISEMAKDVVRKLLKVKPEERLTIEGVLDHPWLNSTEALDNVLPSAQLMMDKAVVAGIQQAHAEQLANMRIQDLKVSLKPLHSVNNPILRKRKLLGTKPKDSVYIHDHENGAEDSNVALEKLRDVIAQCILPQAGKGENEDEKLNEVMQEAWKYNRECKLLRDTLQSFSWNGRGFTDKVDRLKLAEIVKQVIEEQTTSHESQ

[2] = biological target: T2, Phosphatidylinositol 5-phosphate 4-kinase type-2 gamma (Homo sapiens, UniProt Q8TBX8)
T2 sequence (Q8TBX8 whole entry): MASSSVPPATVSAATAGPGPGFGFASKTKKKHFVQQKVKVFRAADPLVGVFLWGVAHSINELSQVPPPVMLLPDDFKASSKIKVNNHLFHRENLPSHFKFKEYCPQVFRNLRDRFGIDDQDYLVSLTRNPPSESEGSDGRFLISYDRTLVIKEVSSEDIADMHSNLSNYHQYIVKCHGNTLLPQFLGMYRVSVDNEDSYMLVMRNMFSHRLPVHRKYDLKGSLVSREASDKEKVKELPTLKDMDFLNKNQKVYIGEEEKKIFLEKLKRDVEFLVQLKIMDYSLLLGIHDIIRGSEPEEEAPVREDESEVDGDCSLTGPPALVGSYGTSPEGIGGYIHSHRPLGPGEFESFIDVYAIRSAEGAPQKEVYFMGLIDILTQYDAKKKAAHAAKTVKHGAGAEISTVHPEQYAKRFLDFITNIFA

[3] = biological target: Cyclin-dependent kinase 5 (Homo sapiens, UniProt Q00535)
Cyclin-dependent kinase 5, sequence (Q00535 whole entry): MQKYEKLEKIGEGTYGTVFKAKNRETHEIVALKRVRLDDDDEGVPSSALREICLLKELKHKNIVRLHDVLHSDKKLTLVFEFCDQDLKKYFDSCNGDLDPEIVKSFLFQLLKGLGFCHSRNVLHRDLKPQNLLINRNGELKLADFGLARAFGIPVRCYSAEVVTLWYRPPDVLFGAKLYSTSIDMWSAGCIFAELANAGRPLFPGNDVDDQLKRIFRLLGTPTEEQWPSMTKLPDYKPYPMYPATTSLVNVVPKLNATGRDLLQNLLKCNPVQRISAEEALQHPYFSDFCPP

[4] = biological target: T3, Serine/threonine-protein kinase 4 (Homo sapiens, UniProt Q13043)
T3 sequence (Q13043 whole entry): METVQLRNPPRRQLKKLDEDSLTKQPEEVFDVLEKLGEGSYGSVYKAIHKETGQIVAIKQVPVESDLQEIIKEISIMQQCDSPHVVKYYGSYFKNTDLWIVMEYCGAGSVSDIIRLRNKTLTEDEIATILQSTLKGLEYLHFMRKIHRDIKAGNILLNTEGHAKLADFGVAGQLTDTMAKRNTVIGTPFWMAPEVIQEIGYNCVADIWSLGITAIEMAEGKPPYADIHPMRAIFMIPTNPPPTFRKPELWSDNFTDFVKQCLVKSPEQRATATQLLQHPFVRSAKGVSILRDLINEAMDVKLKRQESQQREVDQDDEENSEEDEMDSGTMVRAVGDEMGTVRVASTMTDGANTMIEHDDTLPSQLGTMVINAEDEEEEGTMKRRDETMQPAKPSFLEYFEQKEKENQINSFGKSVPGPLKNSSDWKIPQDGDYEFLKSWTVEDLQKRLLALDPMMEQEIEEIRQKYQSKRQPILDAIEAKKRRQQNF

[5] = biological target: T4, Non-receptor tyrosine-protein kinase TNK1 (Homo sapiens, UniProt Q13470)
T4 sequence (Q13470 whole entry): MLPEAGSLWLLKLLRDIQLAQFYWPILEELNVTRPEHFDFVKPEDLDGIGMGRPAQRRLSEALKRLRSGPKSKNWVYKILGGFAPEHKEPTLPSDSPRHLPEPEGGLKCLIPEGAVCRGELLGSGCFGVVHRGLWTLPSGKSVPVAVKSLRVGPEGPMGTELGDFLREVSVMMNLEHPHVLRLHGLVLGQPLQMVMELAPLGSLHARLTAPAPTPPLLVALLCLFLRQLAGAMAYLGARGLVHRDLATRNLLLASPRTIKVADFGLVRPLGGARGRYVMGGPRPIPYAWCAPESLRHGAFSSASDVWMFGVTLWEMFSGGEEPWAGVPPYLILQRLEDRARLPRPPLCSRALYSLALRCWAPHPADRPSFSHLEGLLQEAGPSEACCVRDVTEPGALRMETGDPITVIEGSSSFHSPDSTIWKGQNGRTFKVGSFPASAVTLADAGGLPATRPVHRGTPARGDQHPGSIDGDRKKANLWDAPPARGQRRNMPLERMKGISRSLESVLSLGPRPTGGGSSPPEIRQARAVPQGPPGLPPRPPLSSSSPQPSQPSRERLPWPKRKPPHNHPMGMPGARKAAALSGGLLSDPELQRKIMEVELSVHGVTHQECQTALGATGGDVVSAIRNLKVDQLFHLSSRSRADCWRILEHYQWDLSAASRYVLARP

[6] = biological target: BMP-2-inducible protein kinase (Homo sapiens, UniProt Q9NSY1)
[7] = biological target: Serine/threonine-protein kinase SIK3 (Homo sapiens, UniProt Q9Y2K2)
Serine/threonine-protein kinase SIK3, sequence (Q9Y2K2 whole entry): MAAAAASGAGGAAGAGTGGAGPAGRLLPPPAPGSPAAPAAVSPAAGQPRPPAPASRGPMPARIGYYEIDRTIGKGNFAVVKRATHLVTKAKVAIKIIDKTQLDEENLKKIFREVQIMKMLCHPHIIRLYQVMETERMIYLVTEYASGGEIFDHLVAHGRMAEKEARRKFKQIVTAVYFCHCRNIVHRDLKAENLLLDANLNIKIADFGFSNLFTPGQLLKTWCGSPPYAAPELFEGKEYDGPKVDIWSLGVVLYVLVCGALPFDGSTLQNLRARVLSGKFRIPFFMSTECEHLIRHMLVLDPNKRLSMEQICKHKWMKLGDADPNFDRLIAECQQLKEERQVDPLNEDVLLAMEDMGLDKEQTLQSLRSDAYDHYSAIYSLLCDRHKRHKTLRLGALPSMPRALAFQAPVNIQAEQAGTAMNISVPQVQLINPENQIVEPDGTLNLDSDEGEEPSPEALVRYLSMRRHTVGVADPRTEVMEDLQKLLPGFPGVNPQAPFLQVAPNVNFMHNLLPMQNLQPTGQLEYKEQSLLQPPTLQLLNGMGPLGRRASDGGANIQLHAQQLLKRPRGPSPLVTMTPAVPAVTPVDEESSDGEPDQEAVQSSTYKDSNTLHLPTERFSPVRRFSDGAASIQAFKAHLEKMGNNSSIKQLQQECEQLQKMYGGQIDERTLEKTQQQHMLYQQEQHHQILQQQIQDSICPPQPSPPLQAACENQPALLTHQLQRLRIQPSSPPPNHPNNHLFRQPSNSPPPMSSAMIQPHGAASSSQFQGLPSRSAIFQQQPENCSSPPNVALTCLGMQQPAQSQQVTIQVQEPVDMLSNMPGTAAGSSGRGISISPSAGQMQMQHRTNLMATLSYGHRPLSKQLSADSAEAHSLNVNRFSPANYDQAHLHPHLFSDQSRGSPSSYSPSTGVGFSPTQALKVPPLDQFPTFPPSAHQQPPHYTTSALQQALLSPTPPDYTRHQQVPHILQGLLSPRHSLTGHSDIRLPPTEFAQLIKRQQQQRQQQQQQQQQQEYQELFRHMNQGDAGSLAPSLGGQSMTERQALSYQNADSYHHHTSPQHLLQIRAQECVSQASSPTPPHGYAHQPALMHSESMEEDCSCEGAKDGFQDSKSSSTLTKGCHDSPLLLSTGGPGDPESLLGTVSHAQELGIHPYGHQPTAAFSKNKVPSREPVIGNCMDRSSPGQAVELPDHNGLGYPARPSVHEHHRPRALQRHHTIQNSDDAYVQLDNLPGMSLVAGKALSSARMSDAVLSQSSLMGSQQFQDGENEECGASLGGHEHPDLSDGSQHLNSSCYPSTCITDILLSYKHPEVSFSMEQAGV

[8] = biological target: Cyclin-dependent kinase 6 (Homo sapiens, UniProt Q00534)
Cyclin-dependent kinase 6, sequence (Q00534 whole entry): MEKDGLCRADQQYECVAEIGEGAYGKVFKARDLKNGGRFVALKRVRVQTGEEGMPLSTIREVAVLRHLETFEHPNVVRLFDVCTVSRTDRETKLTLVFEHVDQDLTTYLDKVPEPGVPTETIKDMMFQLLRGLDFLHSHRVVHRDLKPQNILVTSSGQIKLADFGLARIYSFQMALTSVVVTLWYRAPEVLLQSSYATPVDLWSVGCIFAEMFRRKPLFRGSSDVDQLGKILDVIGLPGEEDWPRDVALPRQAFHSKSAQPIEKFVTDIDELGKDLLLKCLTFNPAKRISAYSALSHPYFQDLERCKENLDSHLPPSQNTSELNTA

[9] = biological target: Activated CDC42 kinase 1 (Homo sapiens, UniProt Q07912)
[10] = biological target: Calcium/calmodulin-dependent protein kinase type II subunit gamma (Homo sapiens, UniProt Q13555)
Calcium/calmodulin-dependent protein kinase type II subunit gamma, sequence (Q13555 whole entry, the tested form may be a part): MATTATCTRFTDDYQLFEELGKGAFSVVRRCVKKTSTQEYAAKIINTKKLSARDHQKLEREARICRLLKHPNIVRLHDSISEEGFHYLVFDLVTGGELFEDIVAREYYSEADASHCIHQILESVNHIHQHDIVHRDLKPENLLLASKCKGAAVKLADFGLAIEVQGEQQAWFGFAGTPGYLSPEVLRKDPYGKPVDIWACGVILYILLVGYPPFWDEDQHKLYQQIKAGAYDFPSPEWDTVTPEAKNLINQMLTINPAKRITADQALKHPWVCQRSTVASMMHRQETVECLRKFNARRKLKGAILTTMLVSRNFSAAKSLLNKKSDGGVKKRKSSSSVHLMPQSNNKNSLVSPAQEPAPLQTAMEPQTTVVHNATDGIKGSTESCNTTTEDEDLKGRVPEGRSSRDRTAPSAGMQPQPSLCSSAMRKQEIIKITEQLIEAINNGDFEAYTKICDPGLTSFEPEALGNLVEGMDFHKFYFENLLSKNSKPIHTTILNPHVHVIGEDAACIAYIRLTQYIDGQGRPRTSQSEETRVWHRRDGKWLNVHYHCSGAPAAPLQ

[11] = biological target: LIM domain kinase 1 (Homo sapiens, UniProt P53667)
[12] = biological target: Dual specificity protein kinase CLK1 (Homo sapiens, UniProt P49759)
Dual specificity protein kinase CLK1, sequence (P49759 whole entry): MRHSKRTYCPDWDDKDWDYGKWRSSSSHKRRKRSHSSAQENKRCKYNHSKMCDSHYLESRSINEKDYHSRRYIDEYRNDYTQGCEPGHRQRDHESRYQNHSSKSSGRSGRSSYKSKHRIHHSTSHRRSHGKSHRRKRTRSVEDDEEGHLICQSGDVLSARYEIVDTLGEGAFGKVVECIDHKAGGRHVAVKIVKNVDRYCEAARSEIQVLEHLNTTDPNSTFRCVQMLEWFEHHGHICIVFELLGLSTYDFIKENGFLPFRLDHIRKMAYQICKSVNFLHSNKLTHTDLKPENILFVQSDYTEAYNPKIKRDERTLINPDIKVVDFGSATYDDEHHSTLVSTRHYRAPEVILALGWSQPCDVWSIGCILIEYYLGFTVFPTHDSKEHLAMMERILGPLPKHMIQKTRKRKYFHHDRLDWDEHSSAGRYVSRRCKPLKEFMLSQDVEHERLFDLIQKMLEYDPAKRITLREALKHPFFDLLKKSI

[13] = biological target: Serine/threonine-protein kinase MRCK alpha (Homo sapiens, UniProt Q5VT25)
Serine/threonine-protein kinase MRCK alpha, sequence (Q5VT25 whole entry): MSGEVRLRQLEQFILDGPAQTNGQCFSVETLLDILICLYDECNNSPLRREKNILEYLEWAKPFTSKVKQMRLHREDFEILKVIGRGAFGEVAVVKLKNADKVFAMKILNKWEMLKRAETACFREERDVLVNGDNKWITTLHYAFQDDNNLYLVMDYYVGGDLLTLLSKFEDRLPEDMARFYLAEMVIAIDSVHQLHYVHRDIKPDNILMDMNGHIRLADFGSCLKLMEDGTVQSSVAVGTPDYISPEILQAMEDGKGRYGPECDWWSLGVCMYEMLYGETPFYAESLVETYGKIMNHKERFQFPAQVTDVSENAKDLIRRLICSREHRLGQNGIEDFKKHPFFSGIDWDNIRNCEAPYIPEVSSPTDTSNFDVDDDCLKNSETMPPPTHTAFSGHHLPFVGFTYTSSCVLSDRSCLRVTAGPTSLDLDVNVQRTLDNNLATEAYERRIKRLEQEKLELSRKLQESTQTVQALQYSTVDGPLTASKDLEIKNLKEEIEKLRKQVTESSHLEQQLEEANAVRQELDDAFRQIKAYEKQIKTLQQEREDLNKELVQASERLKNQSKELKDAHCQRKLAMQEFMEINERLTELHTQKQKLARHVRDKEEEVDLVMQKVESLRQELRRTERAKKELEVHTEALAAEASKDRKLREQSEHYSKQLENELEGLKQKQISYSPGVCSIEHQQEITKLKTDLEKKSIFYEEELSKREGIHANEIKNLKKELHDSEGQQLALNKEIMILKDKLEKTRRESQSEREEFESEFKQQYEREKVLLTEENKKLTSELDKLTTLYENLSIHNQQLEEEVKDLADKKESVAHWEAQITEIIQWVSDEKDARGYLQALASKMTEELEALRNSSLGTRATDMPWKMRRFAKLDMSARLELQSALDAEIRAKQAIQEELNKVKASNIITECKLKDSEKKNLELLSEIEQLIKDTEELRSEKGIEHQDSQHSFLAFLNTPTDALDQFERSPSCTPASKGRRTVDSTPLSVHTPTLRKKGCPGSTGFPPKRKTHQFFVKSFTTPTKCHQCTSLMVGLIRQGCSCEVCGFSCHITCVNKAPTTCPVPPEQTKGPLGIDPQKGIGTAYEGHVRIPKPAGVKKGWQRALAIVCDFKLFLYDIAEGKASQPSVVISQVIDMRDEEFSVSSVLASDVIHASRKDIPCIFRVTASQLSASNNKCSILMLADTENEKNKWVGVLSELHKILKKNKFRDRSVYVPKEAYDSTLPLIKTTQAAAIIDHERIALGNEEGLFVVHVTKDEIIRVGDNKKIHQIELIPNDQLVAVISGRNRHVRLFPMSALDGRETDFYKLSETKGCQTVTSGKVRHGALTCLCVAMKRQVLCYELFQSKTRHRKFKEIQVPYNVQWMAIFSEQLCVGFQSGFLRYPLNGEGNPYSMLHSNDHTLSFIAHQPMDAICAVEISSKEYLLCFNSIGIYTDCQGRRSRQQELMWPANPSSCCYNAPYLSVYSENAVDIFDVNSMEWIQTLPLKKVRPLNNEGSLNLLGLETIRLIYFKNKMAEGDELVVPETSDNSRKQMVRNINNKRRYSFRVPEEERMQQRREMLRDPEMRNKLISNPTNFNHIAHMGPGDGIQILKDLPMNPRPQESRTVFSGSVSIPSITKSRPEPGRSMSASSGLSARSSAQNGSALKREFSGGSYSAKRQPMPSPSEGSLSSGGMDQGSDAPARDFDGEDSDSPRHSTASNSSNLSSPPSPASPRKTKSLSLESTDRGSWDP

COc1cc(OC)c(/C=C/S(=O)(=O)Cc2ccc(OC)c(NCC(=O)O)c2)c(OC)c1 [RIGOSERTIB]
Kd [1]: > 30 µM (inactive) | Kd [2]: > 30 µM (inactive) | Kd [3]: > 30 µM (inactive) | Kd [4]: > 30 µM (inactive) | Kd [5]: > 30 µM (inactive) | Kd [6]: > 30 µM (inactive) | Kd [7]: > 30 µM (inactive) | Kd [8]: > 30 µM (inactive) | Kd [9]: > 30 µM (inactive) | Kd [10]: > 30 µM (inactive) | Kd [11]: > 30 µM (inactive) | Kd [12]: > 30 µM (inactive) | Kd [13]: > 30 µM (inactive)

C1=C/COCc2cc(ccc2OCCN2CCCC2)Nc2nccc(n2)-c2cccc(c2)COC/1 [PACRITINIB]
Kd [1]: > 30 µM (inactive) | Kd [2]: > 30 µM (inactive) | Kd [3]: > 30 µM (inactive) | Kd [4]: > 30 µM (inactive) | Kd [5]: 0.888 µM (active) | Kd [6]: 0.039 µM (active) | Kd [7]: > 30 µM (inactive) | Kd [8]: > 30 µM (inactive) | Kd [9]: 9.33 µM (active) | Kd [10]: > 30 µM (inactive) | Kd [11]: > 30 µM (inactive) | Kd [12]: 0.138 µM | Kd [13]: > 30 µM (inactive)

CNC(=O)c1ccc(-c2cnc3ncc(Cc4ccc5ncccc5c4)n3n2)cc1F [CAPMATINIB]
Kd [1]: > 30 µM (inactive) | Kd [2]: > 30 µM (inactive) | Kd [3]: > 30 µM (inactive) | Kd [4]: > 30 µM (inactive) | Kd [5]: > 30 µM (inactive) | Kd [6]: > 30 µM (inactive) | Kd [7]: > 30 µM (inactive) | Kd [8]: > 30 µM (inactive) | Kd [9]: > 30 µM (inactive) | Kd [10]: > 30 µM (inactive) | Kd [11]: > 30 µM (inactive) | Kd [12]: > 30 µM (inactive) | Kd [13]: > 30 µM (inactive)

CC[C@@H]1C(=O)N(C)c2cnc(Nc3ccc(C(=O)N[C@H]4CC[C@H](N5CCN(CC6CC6)CC5)CC4)cc3OC)nc2N1C(C)C [VOLASERTIB]
Kd [1]: > 30 µM (inactive) | Kd [2]: > 30 µM (inactive) | Kd [3]: > 30 µM (inactive) | Kd [4]: > 30 µM (inactive) | Kd [5]: > 30 µM (inactive) | Kd [6]: > 30 µM (inactive) | Kd [7]: > 30 µM (inactive) | Kd [8]: > 30 µM (inactive) | Kd [9]: > 30 µM (inactive) | Kd [10]: > 30 µM (inactive) | Kd [11]: > 30 µM (inactive) | Kd [12]: > 30 µM (inactive) | Kd [13]: > 30 µM (inactive)

CN1CCC(COc2cnc(-c3cccc(Cn4nc(-c5cccc(C#N)c5)ccc4=O)c3)nc2)CC1 [TEPOTINIB]
Kd [1]: > 30 µM (inactive) | Kd [2]: > 30 µM (inactive) | Kd [3]: > 30 µM (inactive) | Kd [4]: > 30 µM (inactive) | Kd [5]: > 30 µM (inactive) | Kd [6]: > 30 µM (inactive) | Kd [7]: > 30 µM (inactive) | Kd [8]: > 30 µM (inactive) | Kd [9]: > 30 µM (inactive) | Kd [10]: > 30 µM (inactive) | Kd [11]: > 30 µM (inactive) | Kd [12]: > 30 µM (inactive) | Kd [13]: > 30 µM (inactive)

Cc1cc([C@@H](C)Nc2ccccc2C(=O)O)c2nc(N3CCOCC3)cc(=O)n2c1 [AZD-6482]
Kd [1]: > 30 µM (inactive) | Kd [2]: > 30 µM (inactive) | Kd [3]: > 30 µM (inactive) | Kd [4]: > 30 µM (inactive) | Kd [5]: > 30 µM (inactive) | Kd [6]: > 30 µM (inactive) | Kd [7]: > 30 µM (inactive) | Kd [8]: > 30 µM (inactive) | Kd [9]: > 30 µM (inactive) | Kd [10]: > 30 µM (inactive) | Kd [11]: > 30 µM (inactive) | Kd [12]: > 30 µM (inactive) | Kd [13]: > 30 µM (inactive)

Cc1cc(-c2cc(O)ccc2Cl)cc2nnc(Nc3ccc(OCCN4CCCC4)cc3)nc12
Kd [1]: > 30 µM (inactive) | Kd [2]: > 30 µM (inactive) | Kd [3]: > 30 µM (inactive) | Kd [4]: > 30 µM (inactive) | Kd [5]: > 30 µM (inactive) | Kd [6]: > 30 µM (inactive) | Kd [7]: 0.003 µM (active) | Kd [8]: > 30 µM (inactive) | Kd [9]: > 30 µM (inactive) | Kd [10]: > 30 µM (inactive) | Kd [11]: > 30 µM (inactive) | Kd [12]: > 30 µM (inactive) | Kd [13]: > 30 µM (inactive)

Cc1c(F)cc(C(=O)NC2CC2)cc1-c1ccc(C(=O)NCC(C)(C)C)cn1 [LOSMAPIMOD]
Kd [1]: > 30 µM (inactive) | Kd [2]: > 30 µM (inactive) | Kd [3]: > 30 µM (inactive) | Kd [4]: > 30 µM (inactive) | Kd [5]: > 30 µM (inactive) | Kd [6]: > 30 µM (inactive) | Kd [7]: > 30 µM (inactive) | Kd [8]: > 30 µM (inactive) | Kd [9]: > 30 µM (inactive) | Kd [10]: > 30 µM (inactive) | Kd [11]: > 30 µM (inactive) | Kd [12]: > 30 µM (inactive) | Kd [13]: > 30 µM (inactive)

O=C(c1ccc(F)c(F)c1Nc1ccc(I)cc1F)N1CC(O)([C@@H]2CCCCN2)C1 [COBIMETINIB]
Kd [1]: > 30 µM (inactive) | Kd [2]: > 30 µM (inactive) | Kd [3]: > 30 µM (inactive) | Kd [4]: > 30 µM (inactive) | Kd [5]: > 30 µM (inactive) | Kd [6]: > 30 µM (inactive) | Kd [7]: > 30 µM (inactive) | Kd [8]: > 30 µM (inactive) | Kd [9]: > 30 µM (inactive) | Kd [10]: > 30 µM (inactive) | Kd [11]: > 30 µM (inactive) | Kd [12]: > 30 µM (inactive) | Kd [13]: > 30 µM (inactive)

COc1cc(N2CCC(N3CCN(C)CC3)CC2)ccc1Nc1ncnc(Nc2ccccc2S(=O)(=O)C(C)C)n1 [ASP-3026]
Kd [1]: > 30 µM (inactive) | Kd [2]: > 30 µM (inactive) | Kd [3]: > 30 µM (inactive) | Kd [4]: > 30 µM (inactive) | Kd [5]: 0.033 µM (active) | Kd [6]: > 30 µM (inactive) | Kd [7]: > 30 µM (inactive) | Kd [8]: > 30 µM (inactive) | Kd [9]: 0.005 µM (active) | Kd [10]: 1.41 µM (active) | Kd [11]: 3.98 µM (active) | Kd [12]: > 30 µM (inactive) | Kd [13]: > 30 µM (inactive)

O=c1sn(-c2cccc3ccccc23)c(=O)n1Cc1ccccc1 [TIDEGLUSIB]
Kd [1]: > 30 µM (inactive) | Kd [2]: > 30 µM (inactive) | Kd [3]: > 30 µM (inactive) | Kd [4]: > 30 µM (inactive) | Kd [5]: > 30 µM (inactive) | Kd [6]: > 30 µM (inactive) | Kd [7]: > 30 µM (inactive) | Kd [8]: > 30 µM (inactive) | Kd [9]: > 30 µM (inactive) | Kd [10]: > 30 µM (inactive) | Kd [11]: > 30 µM (inactive) | Kd [12]: > 30 µM (inactive) | Kd [13]: > 30 µM (inactive)

CNS(=O)(=O)Nc1nccc(Cc2c(C)c3ccc(Oc4ncccn4)cc3oc2=O)c1F [AVUTOMETINIB]
Kd [1]: > 30 µM (inactive) | Kd [2]: > 30 µM (inactive) | Kd [3]: > 30 µM (inactive) | Kd [4]: > 30 µM (inactive) | Kd [5]: > 30 µM (inactive) | Kd [6]: > 30 µM (inactive) | Kd [7]: > 30 µM (inactive) | Kd [8]: > 30 µM (inactive) | Kd [9]: > 30 µM (inactive) | Kd [10]: > 30 µM (inactive) | Kd [11]: > 30 µM (inactive) | Kd [12]: > 30 µM (inactive) | Kd [13]: > 30 µM (inactive)
